Laboratory results reported in US11535643B2, “Macrolides with modified desosamine sugars and uses thereof” (President and Fellows of Harvard College, priority 2015, dated 2022).
Values after ≈ are worked out from the molar mass of the structure shown. Like-named read-outs stand apart in the source and are kept apart here.

Experiments:
Assay type in all cases: cell-based
[1] = test system: S. aureus; assay: Broth dilution MIC determination (CLSI) against S. aureus strains; details: Staphylococcus aureus
Outline: (§1)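 Following CLSI procedures, broth dilution is used to find the MIC for each strain. Controls: azithromycin and solithromycin.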

[2] = test system: E. coli; assay: Broth dilution MIC determination (CLSI) against E. coli strains; details: Escherichia coli
Outline: as §1

[3] = test system: H. influenzae; assay: Broth dilution MIC determination (CLSI) against H. influenzae strains; details: Haemophilus influenzae
Source text: Minimum inhibitory concentrations (MICs) for macrolides described herein have been determined for unique strains of S. aureus, S. pneumoniae, S. pyogenes, E. faecalis, E. coli, A. baumannii, K. pneumoniae, P. aeruginosa, and H. influenzae, including several multidrug-resistant strains, with a special focus on macrolide resistant mechanisms. Azithromycin and solithromycin were included as control compounds. CLSI standard procedures for broth dilution MIC determination were used. Data for exemplary compounds described herein is shown in Tables M1-M7 and in Tables N1-N4.

[4] = test system: E. faecalis; assay: Broth dilution MIC determination (CLSI) against E. faecalis strains; details: Enterococcus faecalis
Outline: as §1

[5] = test system: A. baumannii; assay: Broth dilution MIC determination (CLSI) against A. baumannii strains; details: Acinetobacter baumannii
Outline: as §1

[6] = test system: S. pyogenes; assay: Broth dilution MIC determination (CLSI) against S. pyogenes strains; details: Streptococcus pyogenes
Outline: as §1

[7] = test system: P. aeruginosa; assay: Broth dilution MIC determination (CLSI) against P. aeruginosa strains; details: Pseudomonas aeruginosa
Outline: as §1

[8] = test system: S. pneumoniae; assay: Broth dilution MIC determination (CLSI) against S. pneumoniae strains; details: Streptococcus pneumoniae
Outline: as §1

[9] = test system: K. pneumoniae; assay: Broth dilution MIC determination (CLSI) against K. pneumoniae strains; details: Klebsiella pneumoniae
Outline: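 Azithromycin and solithromycin served as controls; MICs were obtained by standard CLSI broth dilution on a strain panel including multidrug-resistant and macrolide-resistant isolates.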

[10] = ATCC29213, ATCC29213, read-out: MIC S. aureus ATCC29213
[11] = MRSA / USA100, MRSA: USA100, read-out: MIC S. aureus MRSA: USA100
[12] = MRSA / USA300, MRSA: USA300, read-out: MIC S. aureus MRSA: USA300
[13] = USA600, USA600, GISA, read-out: MIC S. aureus USA600, GISA
[14] = read-out: MIC S. aureus erm A genotype
[15] = ATCC25922, ATCC25922, read-out: MIC E. coli ATCC25922
[16] = read-out: MIC E. coli NDM-1, NDM-1
[17] = ATCC49247, ATCC49247, read-out: MIC H. influenzae ATCC49247
[18] = erythro > 4, azithro 1, read-out: MIC H. influenzae erythro > 4, azithro 1
[19] = ATCC29212, ATCC29212, read-out: MIC E. faecalis ATCC29212
[20] = Vancomycin-resistant, read-out: MIC E. faecalis Vancomycin-resistant
[21] = ATCC19606, ATCC19606, read-out: MIC A. baumannii ATCC19606
[22] = imipenem-resistant, read-out: MIC A. baumannii imipenem-resistant
[23] = ATCC19615, ATCC19615, read-out: MIC S. pyogenes ATCC19615
[24] = macrolide-resistant, read-out: MIC S. pyogenes macrolide-resistant
[25] = ATCC27853, read-out: MIC P. aeruginosa ATCC27853
[26] = ATCC49619, ATCC49619, read-out: MIC S. pneumoniae ATCC49619
[27] = erm B + mef A genotype, read-out: MIC S. pneumoniae erm B + mef A genotype
[28] = erm B + tet(M, O) genotype, read-out: MIC S. pneumoniae erm B + tet(M, O) genotype
[29] = read-out: MIC S. pneumoniae mef A genotype, mef A genotype
[30] = read-out: MIC S. pneumoniae mef A genotype, mef A genotype, first of two such columns (c3)
[31] = ATCC10031, ATCC10031, read-out: MIC K. pneumoniae ATCC10031
[32] = KPC-2, read-out: MIC K. pneumoniae KPC-2

Row | Structure (SMILES) | MIC [1, 10] [µg/mL] | MIC [1, 11] [µg/mL] | MIC [1, 12] [µg/mL] | MIC [1, 13] [µg/mL] | MIC [1, 14] [µg/mL] | MIC [2, 15] [µg/mL] | MIC [2, 16] [µg/mL] | MIC [3, 17] [µg/mL] | MIC [3, 18] [µg/mL] | MIC [4, 19] [µg/mL] | MIC [4, 20] [µg/mL] | MIC [5, 21] [µg/mL] | MIC [5, 22] [µg/mL] | MIC [6, 23] [µg/mL] | MIC [6, 24] [µg/mL] | MIC [7, 25] [µg/mL] | MIC [8, 26] [µg/mL] | MIC [8, 27] [µg/mL] | MIC [8, 28] [µg/mL] | MIC [8, 29] [µg/mL] | also measured
1 | CC[C@H]1OC(=O)[C@H](C)C(=O)[C@H](C)[C@@H](O[C@@H]2OC(CNC(=O)CN)CC(N(C)C)C2O)[C@](C)(OC)C[C@@H](C)CN[C@H](C)[C@H]2N(CCCCn3cc(-c4cccc(N)c4)nn3)C(=O)O[C@]12C (stereo partly drawn) [FSM-21878] | 32 (≈ 35.6 µM) | > 32 | > 32 | > 32 | > 32 | > 32 | > 32 | > 32 | 32 (≈ 35.6 µM) | 16 (≈ 17.8 µM) | > 32 | > 32 | > 32 | < 0.0313 | 4 (≈ 4.44 µM) | > 32 | < 0.0313 | 4 | < 0.0313 | 8 (≈ 8.89 µM) | MIC [8, 30]: 0.5 µg/mL (≈ 0.555 µM); MIC [9, 31]: 16 µg/mL (≈ 17.8 µM); MIC [9, 32]: > 32 µg/mL
2 | CC[C@H]1OC(=O)[C@H](C)C(=O)[C@H](C)[C@@H](O[C@@H]2OC(CNC(=O)CNC(C)(C)C)CC(N(C)C)C2O)[C@](C)(OC)C[C@@H](C)CN[C@H](C)[C@H]2N(CCCCn3cc(-c4cccc(N)c4)nn3)C(=O)O[C@]12C (stereo partly drawn) [FSM-21879] | 32 (≈ 33.5 µM) | > 32 | > 32 | > 32 | > 32 | 32 (≈ 33.5 µM) | 32 (≈ 33.5 µM) | 16 (≈ 16.7 µM) | 8 (≈ 8.37 µM) | 16 (≈ 16.7 µM) | > 32 | > 32 | > 32 | < 0.0313 | 2 (≈ 2.09 µM) | > 32 | < 0.0313 | 1 | < 0.0313 | 4 (≈ 4.18 µM) | MIC [8, 30]: 0.25 µg/mL (≈ 0.261 µM); MIC [9, 31]: 8 µg/mL (≈ 8.37 µM); MIC [9, 32]: > 32 µg/mL
3 | CC[C@H]1OC(=O)[C@H](C)C(=O)[C@H](C)[C@@H](O[C@@H]2OC(CNC(=O)c3ccccc3)CC(N(C)C)C2O)[C@](C)(OC)C[C@@H](C)CN[C@H](C)[C@H]2N(CCCCn3cc(-c4cccc(N)c4)nn3)C(=O)O[C@]12C (stereo partly drawn) [FSM-21880] | 32 (≈ 33.8 µM) | > 32 | > 32 | > 32 | > 32 | 16 (≈ 16.9 µM) | 32 (≈ 33.8 µM) | 4 (≈ 4.22 µM) | 4 (≈ 4.22 µM) | 4 (≈ 4.22 µM) | > 32 | > 32 | 32 (≈ 33.8 µM) | < 0.0313 | 1 (≈ 1.06 µM) | > 32 | < 0.0313 | 1 | < 0.0313 | 2 (≈ 2.11 µM) | MIC [8, 30]: 0.0625 µg/mL (≈ 0.066 µM); MIC [9, 31]: 8 µg/mL (≈ 8.45 µM); MIC [9, 32]: > 32 µg/mL
4 | CC[C@H]1OC(=O)[C@H](C)C(=O)[C@H](C)[C@@H](O[C@@H]2OC(CNC(=O)c3cnccn3)CC(N(C)C)C2O)[C@](C)(OC)C[C@@H](C)CN[C@H](C)[C@H]2N(CCCCn3cc(-c4cccc(N)c4)nn3)C(=O)O[C@]12C (stereo partly drawn) [FSM-21881] | 8 (≈ 8.43 µM) | > 32 | > 32 | > 32 | > 32 | 16 (≈ 16.9 µM) | > 32 | 8 (≈ 8.43 µM) | 2 (≈ 2.11 µM) | 2 (≈ 2.11 µM) | > 32 | > 32 | > 32 | ≤ 0.0312 | 2 (≈ 2.11 µM) | > 32 | ≤ 0.0312 | 4 | ≤ 0.0312 | 2 (≈ 2.11 µM) | MIC ([2]; read-out: MIC E. coli CTX-M-14, CTX-M-14): > 32 µg/mL; MIC ([2]; read-out: MIC E. coli TEM-1, TEM-1): 32 µg/mL (≈ 33.7 µM); MIC ([5]; IMP-4, read-out: MIC A. baumannii IMP-4): > 32 µg/mL; MIC ([5]; chromosomal class C, read-out: MIC A. baumannii chromosomal class C): > 32 µg/mL; MIC ([7]; read-out: MIC P. aeruginosa HPA101-1477): > 32 µg/mL; MIC [8, 30]: 0.5 µg/mL (≈ 0.527 µM); MIC [9, 31]: 8 µg/mL (≈ 8.43 µM); MIC [9, 32]: > 32 µg/mL; MIC ([9]; SHV-12, read-out: MIC K. pneumoniae SHV-12): > 32 µg/mL; MIC ([9]; TEM-10, read-out: MIC K. pneumoniae TEM-10): 32 µg/mL (≈ 33.7 µM)
